{"source": "patent US9133239B2", "about": "“Compositions and methods for inhibiting matrix metalloproteinase (MMP)-mediated cell migration” (THE RESEARCH FOUNDATION FOR THE STATE UNIVERSITY OF NEW YORK, priority 2010, dated 2015)", "key": {"[1]": {"system": "GFP expressing MDA-MB-435 cells", "assay": "Mammary fat pad tumor growth and lung metastasis model", "format": "in vivo, immunodeficient female mice", "conditions": "20 mg/kg/day i.p. and intratumoral alternatively; after twelve weeks", "protocol": "2×10^6 GFP expressing MDA-MB-435 cells were injected in the mammary fat pad of immunodeficient female mice followed by administering 20 mg/kg/day of specific and scrambled peptides via i.p. and intratumoral injection, alternatively. Primary tumor size was monitored over a 10-week time course. Inhibitory peptides had no effect on tumor growth (A). After twelve weeks, the mice were sacrificed and the organs were pathologically examined. The lungs were sliced into 3 mm thick sections. The incidence of lung metastasis was assessed by examining metastatic tumors in the lungs (B). The number (C) and size (D) of metastasized tumors in the lungs were microscopically counted based on GFP expression and measured using Nikon NIS Elements Imaging software, respectively."}, "[2]": {"system": "COS-1 cells transfected with MT1-MMP cDNA", "assay": "Cell migration of MT1-MMP transfected COS-1 cells", "format": "cell-based", "source_text": "(§1) Based on our studies of the structure-function relationship of the MT1-MMP hemopexin (PEX)-like domain, we designed and synthesized peptides mimicking 8 amino acids of the outermost β strand of blades I, II, III and IV from the PEX domain, named IS4-8 ([…]) (SEQ ID NO:01), IIS4-8 ([…]) (SEQ ID NO:02), and IVS4-8 ([…]) (SEQ ID NO:03), respectively. Corresponding scrambled peptides were synthesized as controls. […] We further designed truncated forms of IS4-8 and IVS-8 peptides from the N- and C-terminus of the peptides. The C-terminal 5 amino acids of the IS4-8, named IS4-5 (GYPMP) (SEQ ID NO:04) is essential for inhibition of functional MT1-MMP. […] Thus, the PEX domain of MT1-MMP is a high-specificity target for interference with MT1-MMP-induced cancer cell invasion and for identification of cancer cells expressing MT1-MMP. These novel bi-functional inhibitory peptides will provide specificity with limited systemic toxicity."}, "[3]": {"system": "human MDA-MB-231 breast cancer cells", "assay": "Cell migration of MDA-MB-231 cells expressing endogenous MT1-MMP", "format": "cell-based", "source_text": "as §1"}, "[4]": {"system": "human MDA-MB-231, and -435 breast cancer cells (-435)", "assay": "Cell migration of MDA-MB-435 cells expressing endogenous MT1-MMP", "format": "cell-based", "source_text": "as §1"}, "[5]": {"system": "human HT1080 fibrosarcoma cells", "assay": "Cell migration of HT1080 cells expressing endogenous MT1-MMP", "format": "cell-based", "source_text": "as §1"}, "[6]": {"system": "cell migration induced by MMP-9", "assay": "Cell migration induced by MMP-9 (specificity)", "format": "cell-based", "source_text": "as §1\n(§2) The term “specifically reduces cell migration that is mediated by MT1-MMP” when in reference to a composition means that the composition reduces cell migration that is mediated by MT1-MMP, in the absence of a reduction of cell migration that is mediated by MMP-9 and/or MT3-MMP and/or MT6-MMP (FIG. 7)."}, "[7]": {"system": "cell migration induced by MT6-MMP", "assay": "Cell migration induced by MT6-MMP (specificity)", "format": "cell-based", "source_text": "as §1, §2"}, "[8]": {"system": "human breast cancer MCF-7 cells ectopically expressing MT1-MMP", "assay": "proMMP-2 activation by gelatin zymography of conditioned medium", "format": "cell-based", "conditions": "MCF-7 cells expressing MT1-MMP", "source_text": "The conditioned medium from human breast cancer MCF-7 cells ectopically expressing MT1-MMP in the presence of scrambled peptides or specific peptides was examined by gelatin zymography to determine whether interference with the PEX domain of MT1-MMP by the peptides also affects the proteolytic activity of MT1-MMP."}, "[9]": {"system": "human MDA-MB-231 breast cancer cell"}, "[10]": {"system": "MT1-MMP-mediated cell migration (LNCaP)", "assay": "FITC-fibronectin degradation assay and Transwell chamber migration assay with GST-MTPEX", "format": "cell-based", "source_text": "Our results and others emphasized the critical role of the PEX domain of MT1-MMP in cells migration (8,57). […] As proof of this hypothesis, we generated chimeric cDNAs encoding GST and GST-MTPEX chimera."}, "[11]": {"system": "cells expressing MT1-MMP", "assay": "Flow cytometry binding to cells", "conditions": "flow cytometry analysis", "source_text": "as §1"}, "[12]": {"system": "MT1-GFP expressing LNCaP cells", "assay": "Cell surface E-cadherin shedding", "format": "cell-based, human", "protocol": "To examine if shedding of E-cadherin at cell-cell adherens junctions correlated with loss of cell surface E-cadherin, biotinylation of cell surface proteins followed by streptavdin precipitation and Western blotting using anti-E-cadherin antibody was performed (51)."}, "[13]": {"system": "MT1-GFP expressing LNCaP cells", "assay": "FITC-labeled Matrigel degradation in the presence of proMMP-2", "format": "cell-based, human", "source_text": "To examine the role of MT1-MMP in invasion through basement membrane in an in vitro assay, we labeled Matrigel, a soluble basement membrane matrix from the EHS tumor with FITC. Western blotting using anti-type IV collagen and anti-laminin V antibodies confirmed that type IV collagen and laminin V remained intact in FITC-labeled Matrigel. Using FITC-labeled Matrigel-coated coverslips, LNCaP cells producing MT1-GFP were examined for Matrigel degradation. MT1-MMP expressing LNCaP cells readily degraded the FITC-labeled substrate (depicted by loss of fluorescence-labeled Matrigel in FIG. 31A-a)."}, "[14]": {"system": "MT1-GFP expressing cells", "assay": "Combined FITC-labeled fibronectin substrate degradation and phagokinetic assay", "format": "cell-based", "source_text": "Using FITC-labeled gelatin coated coverslips and engineered MT1-MMP substitution mutations, structure-function relationships of MT1-MMP in cell invasion and migration were studied by domain shuffling experiments (FIG. 32A). As expected, MT1-MMP expressing cells degraded FITC-labeled gelatin and migrated over digested substrate (FIG. 32B). […] To examine the effect of proteolytic activity of MT1-MMP on cell migration, we employed a natural MMP inhibitor, TIMP-2 in combined FITC-labeled substrate degradation assay and phagokinetic assay (54) by coating coverslips with both FIT-labeled fibronectin and colloidal gold particles."}, "[15]": {"system": "MT1-GFP expressing LNCaP cells", "assay": "Cell scattering in 3D type I collagen gel", "format": "cell-based, human", "conditions": "TIMP-2 10 nM", "source_text": "Although increasing evidence highlight the importance of proteolytic remodeling of the ECM during invasion (65,66), recent reports have challenged this concept showing that the ability of tumor cells to migrate through collagenous barriers by switching to an amoeboid-like form was independent on proteinases (67). This observation, however, was possible due to reversible MMP inhibitors and low concentration of inhibitors (68). […] Employing a 3-dimensional (3D) culture in native type I collagen gel, we examined the cell scattering effect of MT1-GFP. […] GFP-alone expressing LNCaP cells formed spherical aggregates (FIG. 37A-a2-a3), while MT-GFP expressing LNCaP cells presented a scattered distribution in the gels (FIG. 37-b2-b3). H & E staining of frozen sections confirmed this observation (FIG. 37A-a4,b4)."}}, "note": "Read-outs that look alike come from different tables or passages of the source. Where a SMILES comes first, the peptide text is derived from it. Where no end group is shown, it is not given here."}
{"molecule": "IVS4: MT1-MMP specific inhibitory IVS4 peptide given to mice in Example 27; probably IVS4-8 (GYPKSALR)", "values": [{"measurement": "lung metastasis (degree/number of metastasized tumors)", "setting": "[1]", "value": "reduced"}, {"measurement": "tumor foci area (size) in the lung", "setting": "[1]", "value": "tumor sizes in scramble peptide treated mice were noticeably larger"}]}
{"molecule": "CSCC[C@H](NC(=O)[C@@H](N)C(C)C)C(=O)N[C@@H](CC(=O)O)C(=O)NCC(=O)N[C@@H](Cc1ccc(O)cc1)C(=O)N1CCC[C@H]1C(=O)N[C@@H](CCSC)C(=O)N1CCC[C@H]1C(=O)O", "note": "[IS4-8] (H-VMDGYPMP-OH; N-terminus and C-terminus assumed)", "values": [{"measurement": "cell migration", "setting": "[2]", "value": "reduce cell migration"}, {"measurement": "cell migration", "setting": "[3]", "value": "reduce cell migration"}, {"measurement": "cell migration", "setting": "[4]", "value": "reduce cell migration"}, {"measurement": "cell migration", "setting": "[5]", "value": "reduce cell migration"}, {"measurement": "cell migration induced by MMP-9", "setting": "[6]", "value": "do not affect cell migration"}, {"measurement": "cell migration induced by MT6-MMP", "setting": "[7]", "value": "do not affect cell migration"}, {"measurement": "MT1-MMP-induced proMMP-2 activation", "setting": "[8]", "value": "specifically inhibited"}, {"measurement": "IC50", "setting": "[9]", "value": 1500, "unit": "nM"}]}
{"molecule": "IS4: MT1-MMP specific inhibitory IS4 peptide given to mice in Example 27; length (IS4-8 or IS4-5) not stated (VMDGYPMP)", "values": [{"measurement": "lung metastasis (degree/number of metastasized tumors)", "setting": "[1]", "value": "reduced"}, {"measurement": "tumor foci area (size) in the lung", "setting": "[1]", "value": "tumor sizes in scramble peptide treated mice were noticeably larger"}]}
{"molecule": "CC(C)C[C@H](NC(=O)[C@H](C)NC(=O)[C@H](CO)NC(=O)[C@H](CCCCN)NC(=O)[C@@H]1CCCN1C(=O)[C@H](Cc1ccc(O)cc1)NC(=O)CN)C(=O)N[C@@H](CCCNC(=N)N)C(=O)O", "note": "[IVS4-8] (H-GYPKSALR-OH; N-terminus and C-terminus assumed)", "values": [{"measurement": "cell migration", "setting": "[2]", "value": "reduce cell migration"}, {"measurement": "cell migration", "setting": "[3]", "value": "reduce cell migration"}, {"measurement": "cell migration", "setting": "[4]", "value": "reduce cell migration"}, {"measurement": "cell migration", "setting": "[5]", "value": "reduce cell migration"}, {"measurement": "cell migration induced by MMP-9", "setting": "[6]", "value": "do not affect cell migration"}, {"measurement": "cell migration induced by MT6-MMP", "setting": "[7]", "value": "do not affect cell migration"}, {"measurement": "IC50", "setting": "[9]", "value": 10000, "unit": "nM"}]}
{"molecule": "GST-tagged MTPEX protein: purified GST fusion protein of the PEX domain of MT1-MMP", "values": [{"measurement": "MT1-MMP-mediated cell migration", "setting": "[10]", "value": "inhibited MT1-MMP-mediated cell migration"}, {"measurement": "MT1-MMP-mediated cell migration", "setting": "[10]; listed as MT1-MMPPEX", "value": "inhibited MT1-MMP-medicated LNCaP cell migration"}, {"measurement": "MT1-MMP-mediated cell migration", "setting": "[10]; listed as recombinant MT1-PEX protein", "value": "blocked MT1-MMP-mediated cell migration"}]}
{"molecule": "biotinylated IS4-5: biotinylated IS4-5 (GYPMP) peptide used for flow cytometry (also: biotinylated, position not given here)", "values": [{"measurement": "binding to cells expressing MT1-MMP", "setting": "[11]", "value": "specifically binds to cells expressing MT1-MMP"}]}
{"molecule": "tissue inhibitor of matrix metalloproteinase-2 [TIMP-2]", "values": [{"measurement": "cell surface E-cadherin shedding", "setting": "[12]", "value": "interfered with cell surface E-cadherin shedding"}, {"measurement": "digestion of FITC-labeled Matrigel", "setting": "[13]", "value": "totally abolished the digestion of Matrigel"}, {"measurement": "substrate degradation (FITC-labeled fibronectin)", "setting": "[14]", "value": "interfered with substrate degradation"}, {"measurement": "scattered distribution of cells in type I collagen gel", "setting": "[15]", "value": "abolished"}]}
{"molecule": "CSCC[C@H](NC(=O)[C@@H]1CCCN1C(=O)[C@H](Cc1ccc(O)cc1)NC(=O)CN)C(=O)N1CCC[C@H]1C(=O)O", "note": "[IS4-5, GYPMP] (H-GYPMP-OH; N-terminus and C-terminus assumed)", "values": [{"measurement": "MT1-MMP-induced proMMP-2 activation", "setting": "[8]", "value": "specifically inhibited"}, {"measurement": "IC50", "setting": "[9]", "value": 1500, "unit": "nM"}]}
{"molecule": "TIMP-1: recombinant TIMP-1, tissue inhibitor of metalloproteinases used as control inhibitor", "values": [{"measurement": "cell migration over Matrigel", "setting": "[13]", "value": "did not interfere with cell migration"}, {"measurement": "digestion of FITC-labeled Matrigel", "setting": "[13]", "value": "partial inhibition of substrate digestion"}]}
